From patent publication US20170266266A1, “Functions of 55 Newfound Proteins and Their Medicinal Application in the Treatment and Prevention of Disease” (priority 2012, published 2017)
Where “and” joins values, the source holds several entries; their conditions need not be identical. Equal entries are not always repeated. Where two headings read alike, the source gives them in different places.

Legend:
[1] = test system: atherosclerosis in APOE KO mice; assay type: in vivo
[2] = test system: fatty streak lesions in rabbits on high fat diet; assay type: in vivo, rabbit; set-up: HDL-C, Wk 0 / HDL-C, Wk 18 or wk 21 / Fatty streak lesions area, Compare to wk 10 of control group / Fatty streak lesions area, Compare to wk 18 of control group: unit not given here; conditions: for lipid con. at dissected aorta: triglyceride content; for increase of area of fatty streak lesion: control group 187%
Method: The rabbits were fasted for 12 hrs before the beginning of the experiments. Blood parameters were then tested as the normal level of plasma indicators. A total of 52 rabbits were purchased at different time, four of them were used as normal control and fed with normal diet the whole time during the experiments. […] Plasma concentrations of total cholesterol (TC), […] (TG), low density lipoprotein-cholesterol (LDL-C), very low density lipoprotein-cholesterol (VLDL-C), high density lipoprotein-cholesterol (HDL-C) were quantified by enzymatic assays. TC/HDL-C or ([…] ratios were then determined. Animals were sacrificed under deep anesthesia with sodium pentobarbital 25 mg/kg IV. The entire aorta from the aortic valve to the iliac bifurcation was removed from each rabbit and opened longitudinally. […] Atheromatous lesions were measured without staining Atheromatous lesions were manually traced in the photographs, and the percent area of the atheromatous lesions was calculated. Sample of aorta from animals were homogenated. And the content of lipid was determined.

[3] = test system: atherosclerosis in LDLR KO mice; experiment: Efficacy of AFOD RAAS 1 (APOA1) on atherosclerosis, LDLR KO mice; assay type: in vivo
[4] = test system: SK-OV-3-luc ovarian cancer; experiment: Ovarian cancer survival in mice; assay type: in vivo; conditions: group mean, study still ongoing
Source text: Ovarian cancer study has been conducted at Wuxi AppTec under Dr. Yong Cang and the study is still ongoing as of Aug. 4, 2013. However in order to show the comparison mean days of the death of the mice in each group to compare with the positive drug group which has 76.8 days.
Bioluminescent images of RAAS-20120628-SK-OV-3-luc for all groups.
At day 63 after ovarian cancer has started an experiment of Kieu Hoang AFCC TM by oral application of four mice left from the entire group. That means that by day 63 ovarian cancer has already developed. In the beginning we forced the mice to drink without water, therefore the mice died in early stage.

[5] = APOA1 group 1, Wk 0 (start of high fat diet)
[6] = APOA1 group 1, Wk 10 (before APOA1 administration)
[7] = APOA1 group 1, Wk 18 (end of APOA1 administration)
[8] = APOA1 group 2, Wk 0 (start of high fat diet)
[9] = APOA1 group 2, Wk 10 (before APOA1 administration)
[10] = APOA1 group 2, Wk 21 (end of APOA1 administration)

## human Apolipoprotein AI [APOAI]
[1]; APOE KO mice
  reduction and prevention of atherosclerosis: effective in the reduction and prevention of atherosclerosis
[1]; after injection
  pre-B HDL, western blot: increase of pre-B HDL
[1]; mouse, in vivo
  antibody of APOA1 raised in mice: no antibody of APOA1 raised
[2]; [5]
  TC/HDL-C: 1.938
  plasma HDL-C: 0.748
  plasma LDL-C: 0.282
  plasma TCH: 1.152
  plasma TG: 0.967
  plasma VLDL-C: 0.870
[2]; [6]
  TC/HDL-C: 6.560
  plasma HDL-C: 8.261
  plasma LDL-C: 21.157
  plasma TCH: 36.153
  plasma TG: 5.191
  plasma VLDL-C: 14.996
[2]; [7]
  TC/HDL-C: 3.000
  plasma HDL-C: 1.46
  plasma LDL-C: 2.60
  plasma TCH: 3.69
  plasma TG: 1.17
  plasma VLDL-C: 1.09
[2]; [8]
  TC/HDL-C: 4.185
  plasma HDL-C: 0.432
  plasma LDL-C: 0.472
  plasma TCH: 1.430
  plasma TG: 0.93
  plasma VLDL-C: 0.958
[2]; [9]
  TC/HDL-C: 3.667
  plasma HDL-C: 10.168
  plasma LDL-C: 19.24
  plasma TCH: 34.683
  plasma TG: 4.507
  plasma VLDL-C: 15.443
[2]; [10]
  TC/HDL-C: 3.844
  plasma HDL-C: 1.17
  plasma LDL-C: 2.19
  plasma TCH: 3.322
  plasma TG: 1.94
  plasma VLDL-C: 1.14
[2]; APOAI Group 1
  HDL-C, Wk 0: 0.748
[2]; APOAI Group 1 (n = 7)
  lipid con. at dissected aorta: 0.025 ± 0.0095 µmol/mg
[2]; APOAI Group 1, Wk 18
  Fatty streak lesions area: 43.84%
  Fatty streak lesions area, Compare to wk 10 of control group: 19.03
  Fatty streak lesions area, Compare to wk 18 of control group: −27.36
  Fatty streak lesions area, Decrease % (compare to wk 18 of control group): 38.43%
  Fatty streak lesions area, Increase % (compare to wk 10 of control group): 77%
[2]; APOAI Group 1, wk 0 to wk 18
  HDL-C, Concentration increased: 0.716
  HDL-C, Fold increased: 1.436
[2]; APOAI Group 2
  HDL-C, Wk 0: 0.432
[2]; APOAI Group 2 (n = 4)
  lipid con. at dissected aorta: 0.0267 ± 0.0054 µmol/mg
[2]; APOAI Group 2, Wk 21
  Fatty streak lesions area: 50.51%
  Fatty streak lesions area, Compare to wk 10 of control group: 25.71
  Fatty streak lesions area, Compare to wk 18 of control group: −20.69
  Fatty streak lesions area, Decrease % (compare to wk 18 of control group): 29.05%
  Fatty streak lesions area, Increase % (compare to wk 10 of control group): 104%
[2]; APOAI Group 2, wk 0 to wk 21
  HDL-C, Concentration increased: 0.992
  HDL-C, Fold increased: 3.078
[2]; APOAI group 1 (wk 18)
  HDL-C, Wk 18 or wk 21: 1.464
  decrease of area of fatty streak lesion vs control group: 38% and 38.43%
[2]; APOAI group 1, P<0.05
  TC/HDL-C vs control group: significant decrease
  VLDL-C vs control group: significant decrease
[2]; APOAI group 1
  increase of area of fatty streak lesion: 77%
[2]; APOAI group 1 and 2
  rest of plasma lipid values vs control group: no significant change
[2]; APOAI group 2 (wk 21)
  HDL-C, Wk 18 or wk 21: 1.423
  decrease of area of fatty streak lesion vs control group: 29% and 29.05%
[2]; APOAI group 2
  increase of area of fatty streak lesion: 104%
[2]; P<0.05
  triglyceride content at dissected aorta vs control group: significantly lower
[2]; rabbit, in vivo
  liver index vs control group: no difference
[2]; vs animal without APOAI treatment
  plasma lipid concentrations (TC, TG, LDL-C, VLDL-C, HDL-C): decrease in all plasma lipid concentrations
[2]; vs control group
  gross examination of inner surface of aorta: no bumps on the inner surface of aorta
[2]; vs wk 10
  liver gross specimen: less fatty change in gross specimen
[3]
  reduction and prevention of atherosclerosis: effective in the reduction and prevention of atherosclerosis
[4]
  Mean Survival Time: 115.8 days
